Results published in PMC4048267, “Purification and Characterization of a Novel and Robust L-Asparaginase Having Low-Glutaminase Activity from Bacillus licheniformis: In Vitro Evaluation of Anti-Cancerous Properties” (PLoS ONE, 2014).

Tested on: T1, L-asparaginase from Bacillus licheniformis RAM-8
T1 construct: gene L-asparagine amidohydrolase
Conditions: 25 °C; L-asparagine 2 to 20 mM; assay buffer 50 mM Tris-HCl pH 8.6

Km: 14 µM
Compound: NC(=O)C[C@H](N)C(=O)O [L-asparagine]
